Results on nine molecules are retold here after ChEMBL document CHEMBL1130555, “Synthesis and biological activity of novel 3-trifluoromethyl taxoids” (Bioorg Med Chem Lett, 1997).

Assay type in all cases: functional, cell-based
In assay [1] the test system is A549. Nature of the assay: Cytotoxicity was evaluated against A549 non-small cell lung carcinoma human cancer cell line.
Assay [2] concerns HT-29. Nature of the assay: Cytotoxicity was evaluated against HT-29 colon carcinoma human cancer cell line.
In assay [3] the test system is MCF7R. Nature of the assay: Cytotoxicity was evaluated against MCF7-R (mammary carcinoma 180-fold resistant to doxorubicin, expressing MDR phenotype) human breast cancer cell line.
The subject of assay [4] is MCF7. Nature of the assay: Cytotoxicity was evaluated against MCF-7 mammary carcinoma human breast cancer cell line.
For assay [5], the system named is A121. Nature of the assay: Cytotoxicity was evaluated against A121 ovarian carcinoma human cancer cell line.

With `CCC(=O)O[C@H]1C(=O)[C@@]2(C)[C@H]([C@H](OC(=O)c3ccccc3)[C@]3(O)C[C@H](OC(=O)[C@H](O)[C@@H](NC(=O)OC(C)(C)C)C(F)(F)F)C(C)=C1C3(C)C)[C@]1(OC(C)=O)CO[C@@H]1C[C@@H]2O`, the IC50 in assay [1] came out at 0.3 nM; in assay [2], 0.4 nM; in assay [3], 14 nM; in assay [4], 0.3 nM; in assay [5] it was 0.3 nM.
With `CC(=O)O[C@@]12CO[C@@H]1C[C@H](O)[C@@]1(C)C(=O)[C@H](OC(=O)C3CC3)C3=C(C)[C@@H](OC(=O)[C@H](O)[C@@H](NC(=O)OC(C)(C)C)C(F)(F)F)C[C@@](O)([C@@H](OC(=O)c4ccccc4)[C@H]21)C3(C)C`, the IC50 was found to be 0.4 nM in assay [1]; 0.5 nM in assay [2]; 16 nM in assay [3]; 0.5 nM in assay [4]; 0.4 nM in assay [5].
With `COC(=O)O[C@H]1C(=O)[C@@]2(C)[C@H]([C@H](OC(=O)c3ccccc3)[C@]3(O)C[C@H](OC(=O)[C@H](O)[C@@H](NC(=O)OC(C)(C)C)C(F)(F)F)C(C)=C1C3(C)C)[C@]1(OC(C)=O)CO[C@@H]1C[C@@H]2O`, the IC50 in assay [1] was 0.2 nM; in assay [2], 0.4 nM; in assay [3], 21 nM; in assay [4], 0.4 nM; in assay [5] it was 0.3 nM.
As for `CC(=O)O[C@@]12CO[C@@H]1C[C@H](O)[C@@]1(C)C(=O)[C@H](O)C3=C(C)[C@@H](OC(=O)[C@H](O)[C@@H](NC(=O)OC(C)(C)C)C(F)(F)F)C[C@@](O)([C@@H](OC(=O)c4ccccc4)[C@H]21)C3(C)C`, the IC50 came to 0.44 nM in assay [1]; 0.65 nM in assay [2]; 156 nM in assay [3]; 0.44 nM in assay [4]; 1.15 nM in assay [5].
Regarding `CC(=O)O[C@H]1C(=O)[C@@]2(C)[C@H]([C@H](OC(=O)c3ccccc3)[C@]3(O)C[C@H](OC(=O)[C@H](O)[C@@H](NC(=O)OC(C)(C)C)C(F)(F)F)C(C)=C1C3(C)C)[C@]1(OC(C)=O)CO[C@@H]1C[C@@H]2O`, the IC50 is 0.2 nM in assay [1]; 0.4 nM in assay [2]; 156 nM in assay [3]; 0.6 nM in assay [4]; 0.3 nM in assay [5].
For `CCCCC(=O)O[C@H]1C(=O)[C@@]2(C)[C@H]([C@H](OC(=O)c3ccccc3)[C@]3(O)C[C@H](OC(=O)[C@H](O)[C@@H](NC(=O)OC(C)(C)C)C(F)(F)F)C(C)=C1C3(C)C)[C@]1(OC(C)=O)CO[C@@H]1C[C@@H]2O`, in that order: 0.8 nM, 1.4 nM, 26 nM, 0.7 nM and 0.7 nM.
The like results for `CC(=O)O[C@@]12CO[C@@H]1C[C@H](O)[C@@]1(C)C(=O)[C@H](OC(=O)CC(C)(C)C)C3=C(C)[C@@H](OC(=O)[C@H](O)[C@@H](NC(=O)OC(C)(C)C)C(F)(F)F)C[C@@](O)([C@@H](OC(=O)c4ccccc4)[C@H]21)C3(C)C` were, in that order, 0.5 nM, 0.6 nM, 12 nM, 0.5 nM and 0.5 nM.
The like results for `CC(=O)O[C@@]12CO[C@@H]1C[C@H](O)[C@@]1(C)C(=O)[C@H](OC(=O)N3CCOCC3)C3=C(C)[C@@H](OC(=O)[C@H](O)[C@@H](NC(=O)OC(C)(C)C)C(F)(F)F)C[C@@](O)([C@@H](OC(=O)c4ccccc4)[C@H]21)C3(C)C` were, in that order, 0.4 nM, 0.4 nM, 48 nM, 0.4 nM and 0.5 nM.
As to `CC(=O)O[C@@]12CO[C@@H]1C[C@H](O)[C@@]1(C)C(=O)[C@H](OC(=O)N(C)C)C3=C(C)[C@@H](OC(=O)[C@H](O)[C@@H](NC(=O)OC(C)(C)C)C(F)(F)F)C[C@@](O)([C@@H](OC(=O)c4ccccc4)[C@H]21)C3(C)C`, the IC50 was determined as 0.2 nM in assay [1]; 0.4 nM in assay [2]; 17 nM in assay [3]; 0.6 nM in assay [4]; 0.3 nM in assay [5].

Broadly, the IC50 is the point on the concentration scale where inhibition reaches its midpoint.
